As a reminder, the IC50 is the concentration that inhibits the measured activity by half.

This note sets out measurements from US9926281B2 (priority 2014, dated 2018).

Experiment [1] deals with human TACE (Homo sapiens (Human), UniProt P78536). The conditions noted are these: read-out: TACE potency IC50.
In experiment [2] the target is rnADAMTS-5 (1-564-6H) (Rattus norvegicus, UniProt Q6TY19). The conditions noted are these: read-out: Rat ADAMTS-5 potency IC50.
The target in experiment [3] is human ADAMTS-5 (Homo sapiens (Human), UniProt Q9UNA0). The conditions noted are these: read-out: hADAMTS-5 potency IC50.
Experimental: Finally, the fluorescence is read on the Envision (Perkin Elmer) after an incubation of 90 min at 37° C.
In experiment [4] the target is human MMP13 (Homo sapiens (Human), UniProt P45452). The conditions noted are these: read-out: hMMP-13 potency IC50.
Experimental: Human MMP13 is preactivated by incubated the enzyme in the same buffer complemented with 1 mM freshly prepared p-Aminophenylmercuric acetate (AMPA) for 1 hour at 37° C.

Structures are written as SMILES.

human TACE, sequence (P78536 whole entry, looked up, change not shown): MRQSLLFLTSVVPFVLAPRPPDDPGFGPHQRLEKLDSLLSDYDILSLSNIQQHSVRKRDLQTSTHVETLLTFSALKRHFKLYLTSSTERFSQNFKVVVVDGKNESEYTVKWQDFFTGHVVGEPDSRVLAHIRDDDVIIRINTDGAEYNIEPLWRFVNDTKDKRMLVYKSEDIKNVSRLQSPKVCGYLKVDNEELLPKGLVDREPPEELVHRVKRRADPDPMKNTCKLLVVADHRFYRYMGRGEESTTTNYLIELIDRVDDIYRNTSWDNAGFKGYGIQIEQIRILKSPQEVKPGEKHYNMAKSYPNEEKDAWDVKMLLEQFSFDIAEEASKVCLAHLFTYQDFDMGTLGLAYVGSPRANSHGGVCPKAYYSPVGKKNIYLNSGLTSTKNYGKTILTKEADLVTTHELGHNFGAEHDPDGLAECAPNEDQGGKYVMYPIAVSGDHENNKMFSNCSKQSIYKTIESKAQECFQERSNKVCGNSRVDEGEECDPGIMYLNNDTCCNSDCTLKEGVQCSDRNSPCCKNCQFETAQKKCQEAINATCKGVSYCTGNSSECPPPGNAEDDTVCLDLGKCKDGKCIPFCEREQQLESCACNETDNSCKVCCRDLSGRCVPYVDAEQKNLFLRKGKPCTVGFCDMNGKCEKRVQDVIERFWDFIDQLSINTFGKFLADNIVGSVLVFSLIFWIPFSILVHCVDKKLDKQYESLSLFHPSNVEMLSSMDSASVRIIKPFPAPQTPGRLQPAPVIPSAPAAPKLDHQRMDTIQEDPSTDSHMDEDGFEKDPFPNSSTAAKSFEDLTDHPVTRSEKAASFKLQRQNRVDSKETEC
human ADAMTS-5, sequence (Q9UNA0 262-930): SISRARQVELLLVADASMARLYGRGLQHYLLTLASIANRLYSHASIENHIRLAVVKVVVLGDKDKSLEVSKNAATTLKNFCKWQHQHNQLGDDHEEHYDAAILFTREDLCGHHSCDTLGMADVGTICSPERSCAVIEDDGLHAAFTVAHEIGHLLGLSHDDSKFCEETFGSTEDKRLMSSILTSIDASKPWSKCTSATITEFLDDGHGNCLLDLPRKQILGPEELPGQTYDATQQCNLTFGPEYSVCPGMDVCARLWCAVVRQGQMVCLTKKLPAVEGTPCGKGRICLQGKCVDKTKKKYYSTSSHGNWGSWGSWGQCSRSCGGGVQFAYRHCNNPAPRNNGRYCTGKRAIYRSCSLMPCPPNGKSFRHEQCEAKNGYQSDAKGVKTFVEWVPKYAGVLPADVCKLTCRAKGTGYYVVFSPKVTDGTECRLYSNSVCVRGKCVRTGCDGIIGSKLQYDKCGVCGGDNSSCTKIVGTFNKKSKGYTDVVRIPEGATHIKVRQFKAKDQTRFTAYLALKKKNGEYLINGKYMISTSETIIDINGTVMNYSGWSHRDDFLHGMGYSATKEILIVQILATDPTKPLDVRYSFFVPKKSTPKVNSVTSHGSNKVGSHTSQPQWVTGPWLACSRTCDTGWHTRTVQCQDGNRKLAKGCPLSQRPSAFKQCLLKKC

As for `C[C@@H](C[C@@]1(C)NC(=O)NC1=O)C(=O)N1CCN(c2ccc(F)c(Cl)c2)[C@@H](C)C1` [Cpd 265], the values for the IC50 in experiment [1], in experiment [2] and in experiment [3] were above 4 µM, 0.022 µM and 0.018 µM, respectively.
Turning to `O=C1NC(=O)C(CCC(=O)N2CCN(c3cccc(Cl)c3)CC2)(C2CC2)N1` (stereo not drawn) [compound 34, 5-[3-[4-(3-chlorophenyl)piperazin-1-yl]-3-oxo-propyl]-5-cyclopropyl-imidazolidine-2,4-dione], the values for the IC50 in experiment [1], in experiment [2] and in experiment [4] were above 4 µM, 0.041 µM and 3.21 µM, respectively.
On to `Cc1c(Cl)cc(Cl)cc1N1CCN(C(=O)CCC2(C)NC(=O)NC2=O)C[C@@H]1C` (stereo partly drawn) [compound 178, 5-[3-[(3S)-4-(3,5-dichloro-2-methyl-phenyl)-3-methyl-piperazin-1-yl]-3-oxo-propyl]-5-methyl-imidazolidine-2,4-dione], for which the IC50 was found to be 0.344 µM in experiment [2] and 0.577 µM in experiment [3].
Consider `O=C1NC(=O)C(CCC(=O)N2CCN(c3cccc(Cl)c3)CC2)(CNCc2ccccc2)N1` (stereo not drawn) [compound 184, 5-[(benzylamino)methyl]-5-[3-[4-(3-chlorophenyl)piperazin-1-yl]-3-oxo-propyl]imidazolidine-2,4-dione], for which the IC50 in experiment [2] was 0.28 µM; in experiment [3], 0.272 µM.
As for `N#Cc1cccc(N2CCN(C(=O)CCC3(C4CC4)NC(=O)NC3=O)CC2)c1` (stereo not drawn) [compound 195, 3-[4-[3-(4-cyclopropyl-2,5-dioxo-imidazolidin-4-yl)propanoyl]piperazin-1-yl]benzonitrile], the figures for the IC50 in experiment [2] and in experiment [3] were 0.262 µM and 0.318 µM, respectively.
On to `COC(CC1(C)NC(=O)NC1=O)C(=O)N1CCN(c2cccc(F)c2)[C@@H](C)C1` (stereo partly drawn) [compound 294, 5-[3-[(3S)-4-(3-fluorophenyl)-3-methyl-piperazin-1-yl]-2-methoxy-3-oxo-propyl]-5-methyl-imidazolidine-2,4-dione], for which the concentration for half-maximal inhibition (IC50) in experiment [1] is above 20 µM; in experiment [2], 0.128 µM; in experiment [3], 0.134 µM.
For the compound `CC(CC1(C2CC2)NC(=O)NC1=O)C(=O)N1CCN(c2ccc(F)c(Cl)c2)[C@@H](C)C1` (stereo partly drawn) [compound 411, 5-(3-((S)-4-(3-chloro-4-fluorophenyl)-3-methylpiperazin-1-yl)-2-methyl-3-oxopropyl)-5-cyclopropylimidazolidine-2,4-dione], the values for the IC50 in experiment [1], in experiment [4] and in experiment [3] were above 4 µM, 0.865 µM and 0.011 µM, respectively.
For `CC(CC1(C2CC2)NC(=O)NC1=O)C(=O)N1CCN(c2ccc(Cl)cc2)[C@@H](C)C1` (stereo partly drawn) [compound 412, 5-(3-((S)-4-(4-chlorophenyl)-3-methylpiperazin-1-yl)-2-methyl-3-oxopropyl)-5-cyclopropylimidazolidine-2,4-dione], the results for the IC50 in experiment [1], in experiment [4] and in experiment [3] were above 20 µM, 0.433 µM and 0.013 µM, respectively.
For `CC(CC1(C2CC2)NC(=O)NC1=O)C(=O)N1CCN(c2cc(F)cc(Cl)c2)[C@@H](C)C1` (stereo partly drawn) [compound 413, 5-(3-((S)-4-(3-chloro-5-fluorophenyl)-3-methylpiperazin-1-yl)-2-methyl-3-oxopropyl)-5-cyclopropylimidazolidine-2,4-dione], the IC50 was above 4 µM in experiment [1], 0.952 µM in experiment [4] and 0.011 µM in experiment [3].
For `C[C@H]1CN(C(=O)CC[C@@]2(C)NC(=O)NC2=O)CCN1c1ccc(Cl)c(Cl)c1` [compound 414, (R)-5-(3-((S)-4-(3,4-dichlorophenyl)-3-methylpiperazin-1-yl)-3-oxopropyl)-5-methylimidazolidine-2,4-dione] the same measures were above 4 µM, above 4 µM and 0.04 µM.
As for `CC(CC1(COCc2ccccc2)NC(=O)NC1=O)C(=O)N1CCN(c2cc(Cl)cc(Cl)c2)CC1` (stereo not drawn) [compound 415, 5-(benzyloxymethyl)-5-(3-(4-(3,5-dichlorophenyl)piperazin-1-yl)-2-methyl-3-oxopropyl)imidazolidine-2,4-dione], the figures for the IC50 in experiment [1], in experiment [4] and in experiment [3] were 0.396 µM, 1.3 µM and 0.028 µM, respectively.
Regarding `C[C@H]1CN(C(=O)CC[C@@]2(C3CC3)NC(=O)NC2=O)CCN1c1ccc(Cl)c(Cl)c1` [compound 416, 5-cyclopropyl-5-(3-((S)-4-(3,4-dichlorophenyl)-3-methylpiperazin-1-yl)-3-oxopropyl)imidazolidine-2,4-dione], the IC50 in experiment [1] is above 4 µM; in experiment [4], 2.88 µM; in experiment [3] it was 0.012 µM.
`CC(CC1(C)NC(=O)NC1=O)C(=O)N1CCN(c2cc(F)cc(Cl)c2)[C@@H](C)C1` (stereo partly drawn) [compound 418, 5-(3-((S)-4-(3-chloro-5-fluorophenyl)-3-methylpiperazin-1-yl)-2-methyl-3-oxopropyl)-5-methylimidazolidine-2,4-dione]: the IC50 in experiment [1] is above 4 µM; in experiment [4] it was above 4 µM; in experiment [3], 0.033 µM.
Regarding `CC(CC1(C)NC(=O)NC1=O)C(=O)N1CCN(c2cc(Cl)cc(Cl)c2)[C@@H](C)C1` (stereo partly drawn) [compound 420, 5-(3-((S)-4-(3,5-dichlorophenyl)-3-methylpiperazin-1-yl)-2-methyl-3-oxopropyl)-5-methylimidazolidine-2,4-dione], the IC50 in experiment [1] is 2.98 µM; in experiment [4], above 14 µM; in experiment [3] it was 0.032 µM.
Take `CC(CC1(C)NC(=O)NC1=O)C(=O)N1CCN(c2ccc(F)c(Cl)c2)[C@@H](C)C1` (stereo partly drawn) [compound 422, 5-(3-((S)-4-(3-chloro-4-fluorophenyl)-3-methylpiperazin-1-yl)-2-methyl-3-oxopropyl)-5-methylimidazolidine-2,4-dione]: the IC50 was above 4 µM in experiment [1], 2.33 µM in experiment [4] and 0.021 µM in experiment [3].
For `Cc1c(Cl)cc(Cl)cc1N1CCN(C(=O)C(C)CC2(C)NC(=O)NC2=O)C[C@@H]1C` (stereo partly drawn) [compound 423, 5-(3-((S)-4-(3,5-dichloro-2-methylphenyl)-3-methylpiperazin-1-yl)-2-methyl-3-oxopropyl)-5-methylimidazolidine-2,4-dione] the same measures were 1.47 µM, above 20 µM and 0.058 µM.
On to `CC1(CC(COCc2ccccc2)C(=O)N2CCN(c3cc(Cl)cc(Cl)c3)CC2)NC(=O)NC1=O` (stereo not drawn) [compound 424, 5-(2-(benzyloxymethyl)-3-(4-(3,5-dichlorophenyl)piperazin-1-yl)-3-oxopropyl)-5-methylimidazolidine-2,4-dione], for which the IC50 in experiment [1] is above 10.8 µM; in experiment [4], above 20 µM; in experiment [3], 0.053 µM.
For `CC1(CC(CO)C(=O)N2CCN(c3cc(Cl)cc(Cl)c3)CC2)NC(=O)NC1=O` (stereo not drawn) [compound 425, 5-(3-(4-(3,5-dichlorophenyl)piperazin-1-yl)-2-(hydroxymethyl)-3-oxopropyl)-5-methylimidazolidine-2,4-dione] the same measures were 0.245 µM, above 4 µM and 0.018 µM.
On to `COCC1(CC(C)C(=O)N2CCN(c3cc(Cl)cc(Cl)c3)CC2)NC(=O)NC1=O` (stereo not drawn) [compound 427, 5-(3-(4-(3,5-dichlorophenyl)piperazin-1-yl)-2-methyl-3-oxopropyl)-5-(methoxymethyl)imidazolidine-2,4-dione], for which the IC50 in experiment [1] is 0.337 µM; in experiment [4] it was above 4 µM; in experiment [3], 0.02 µM.
For the compound `COCC1(CC(C)C(=O)N2CCN(c3cc(Cl)cc(Cl)c3)[C@@H](C)C2)NC(=O)NC1=O` (stereo partly drawn) [compound 429, 5-(3-((S)-4-(3,5-dichlorophenyl)-3-methylpiperazin-1-yl)-2-methyl-3-oxopropyl)-5-(methoxymethyl)imidazolidine-2,4-dione], the IC50 in experiment [1] was above 3.98 µM; in experiment [4], above 20 µM; in experiment [3], 0.053 µM.
With `COCC1(CC(C)C(=O)N2CCN(c3cccc(Cl)c3C)CC2)NC(=O)NC1=O` (stereo not drawn) [compound 433, 5-(3-(4-(3-chloro-2-methylphenyl)piperazin-1-yl)-2-methyl-3-oxopropyl)-5-(methoxymethyl)imidazolidine-2,4-dione], the half-maximal inhibitory concentration (IC50) in experiment [1] was 1.25 µM; in experiment [4], above 20 µM; in experiment [3], 0.021 µM.
For `CC(CC1(c2ccccn2)NC(=O)NC1=O)C(=O)N1CCN(c2cc(Cl)cc(Cl)c2)CC1` (stereo not drawn) [compound 434, 5-(3-(4-(3,5-dichlorophenyl)piperazin-1-yl)-2-methyl-3-oxopropyl)-5-(pyridin-2-yl)imidazolidine-2,4-dione], the IC50 in experiment [1] was found to be 0.106 µM; in experiment [4] it was 0.766 µM; in experiment [3] it was 0.02 µM.
Take `CCC(CC1(C)NC(=O)NC1=O)C(=O)N1CCN(c2cc(Cl)cc(Cl)c2)CC1` (stereo not drawn) [compound 435, 5-(2-(4-(3,5-dichlorophenyl)piperazine-1-carbonyl)butyl)-5-methylimidazolidine-2,4-dione]: the IC50 came to 0.225 µM in experiment [1], 1.22 µM in experiment [4] and 0.015 µM in experiment [3].
For `COCC(CC1(C)NC(=O)NC1=O)C(=O)N1CCN(c2cc(Cl)cc(Cl)c2)CC1` (stereo not drawn) [compound 436, 5-(3-(4-(3,5-dichlorophenyl)piperazin-1-yl)-2-(methoxymethyl)-3-oxopropyl)-5-methylimidazolidine-2,4-dione] the same measures were 0.368 µM, above 4 µM and 0.022 µM.
With `CC(C)C(CC1(C)NC(=O)NC1=O)C(=O)N1CCN(c2cc(Cl)cc(Cl)c2)CC1` (stereo not drawn) [compound 438, 5-(2-(4-(3,5-dichlorophenyl)piperazine-1-carbonyl)-3-methylbutyl)-5-methylimidazolidine-2,4-dione], the IC50 worked out at 1.28 µM in experiment [1], 1.85 µM in experiment [4] and 0.056 µM in experiment [3].
For the compound `COC(CC1(C)NC(=O)NC1=O)C(=O)N1CCN(c2cc(Cl)cc(Cl)c2)CC1` (stereo not drawn) [compound 439, 5-(3-(4-(3,5-dichlorophenyl)piperazin-1-yl)-2-methoxy-3-oxopropyl)-5-methylimidazolidine-2,4-dione], the IC50 was 0.787 µM in experiment [1], above 4 µM in experiment [4] and 0.043 µM in experiment [3].
